One compound from patent US8986687B2, “Compounds inhibiting CD95 signaling for the treatment of pancreatic cancer” (Deutsches Krebsforschungszentrum, priority 2009, dated 2015) can be followed below.

In this experiment the test system is ERK pathway / phosphorylation of ERK. The experiment can be described thus: Western blotting of ERK phosphorylation in pancreatic cells. Conditions: PANC1 and Colo357 cells. It is filed as cell-based. From the text:
Phosphorylation of AKT and ERK is shown in PanD3, PANC1 and Colo357 cells upon treatment with different concentrations of CD95L-T4 at the indicated time points. P: phosphorylated; T: total.
A) Effect of the PI3K and MEK inhibitors (LY2940092 and PD98059 respectively) on CD95-induced phosphorylation of AKT and ERK is shown in PANC1 and Colo357. Inhibition of PI3K enhances ERK phosphorylation. P: phosphorylated; T: total.
It has been known that low concentrations of CD95L are sufficient to efficiently stimulate the non-apoptotic pathways downstream of CD95, being those pathways inhibited by higher concentrations. […]
Knockdown experiments were performed by transient transfection with Lipofectamine 2000™ (Invitrogen Life Technologies) following the instruction manual. […] After transient transfection with the different siRNAs cells were cultured for 72 h before treated with CD95LT4 (20 ng/ml), migration was analyzed 36 h after treatment with a two dimensional migration assay. Knockdown efficiency was controlled by quantitative real-time PCR.
Proteins were transferred from polyacrylamide gels to nitrocellulose membranes by electroblotting. […] The HRP signal was detected by incubation with ECL solution and consecutive exposure to Amersham Hyperfim X-ray films Protein extraction and immunoblotting was performed as previously described. […]
On the technique in general: In western blotting, separated proteins are transferred to a membrane and probed.

As to `O=c1cc(N2CCOCC2)oc2c(-c3ccccc3)cccc12` [LY2940092], the “effect of PI3K inhibition on CD95-induced ERK phosphorylation” value is given as “enhances”.
